Converted amounts (≈) assume the structure as drawn. Counter-ions that a name gives are not always drawn. Like-named read-outs stand apart in the source and are kept apart here.
How the values were obtained:
[1] = tested on: Staphylococcus aureus Smith; assay: Mouse protection test, S. aureus Smith infection, single dose; type: in vivo, ICR mice; Staphylococcus aureus; details: single dose; for ED50: Staphylococcus aureus, 168 h, read-out: Protective Dose 50% (95% Confidence Limits)
Description: (§1) ICR mice, female, 18-20 grams each.
(§2) Solutions of Win 52,522 and Win 35,439 were prepared by dissolving the appropriate weight of drug in 0.3 to 0.4 ml of 1 N NaOH and then bringing the solutions to the desired volume with distilled water. Methicillin and vancomycin were dissolved directly in distilled water.
Two and one-half ml of pool were added to 247.5 ml of 5% gastric mucin to provide the test inoculum containing 2.1×10^4 cells/ml.
(§3) Mice were inoculated intraperitoneally with 0.5 ml of the bacterial test inoculum.
1. Single dose test--Mice were medicated subcutaneously or orally once (0.5 ml) one-half hour postinfection.
(§4) Deaths were recorded daily for seven days for all tests. Fifty percent protective dose values (PD50's) were calculated using probit analysis [SAS Users Guide: Statistics, 1982 Edition, SAS Institute, Inc., Cary, N.C.].

S. epidermidis 1-3-H = assay: In vitro antibacterial MIC/MBC test; type: cell-based; details: Staphylococcus epidermidis, 13H, S. epidermidis 1-3-H; for MBC: read-out: MBC; for MIC: read-out: MIC
Description: (§5) Win 52,522 and Win 35,439 were solubilized in 0.1 ml of 0.5 N NaOH/mg of compound and diluted in sterile distilled water to 160 mcg/ml. Vancomycin and methicillin were solubilized in sterile distilled water to 1250 mcg/ml of base compound. The stock solutions were sterilized by filtration through membrane filters with a 0.45 μm pore size.
(§6) The bacterial cultures listed in Table I (hereinbelow) were grown overnight at 37° C. in MHB for all cultures except the Streptococcus strains. These were grown in BHI+10% NHS. The overnight broth cultures were adjusted to an optical density of 0.10 (650 nm, B L Spectronic 20) in sterile distilled water and subsequently diluted to 6.7×10^6 cells/ml in MHB or BHI+1% NHS.
(§7) Serial two-fold dilutions of the compound solutions were prepared in MHB (or in BHI+1% NHS for tests with Streptococci) and dispensed into 96-well microtiter trays in a volume of 0.1 ml/well using a Sandy Springs (Bellco Glass Co.) dispenser. The trays were then inoculated with 0.0015 ml of a suspension containing 6.7×10^6 cells/ml of the appropriate inoculum using a MIC-2000 inoculator (Dynatech Corp.) resulting in a final inoculum of approximately 1×10^4 cells/well or 1×10^5 cells/ml. The trays were incubated at 37° C. for 18-20 hours and the minimal inhibitory concentration (MIC), defined as the lowest concentration of compound to inhibit visible bacterial growth, was recorded.
(§8) After the MIC values were recorded, the contents in the microtiter trays were thoroughly mixed on a Bellco Mini-orbital Shaker (Bellco Glass Co.) for 3 min. at a setting of 8. A portion (0.0015 ml) from each well was then transferred via an MIC-2000 inoculator to plates containing MHA or BHI agar+10% NHS. The plates were incubated at 37° C. for 18-20 hrs. The minimal bactericidal concentration (MBC), defined as the lowest concentration of compound that prevented the formation of a recognizable colony on the agar surface, was recorded.

S. epidermidis 1-5-H = assay: In vitro antibacterial MIC/MBC test; type: cell-based; details: Staphylococcus epidermidis, 15H, S. epidermidis 1-5-H; for MBC: read-out: MBC; for MIC: read-out: MIC
Description: as §5, §6, §7, §8

S. aureus VA16951 = assay: In vitro antibacterial MIC/MBC test; type: cell-based; details: Staphylococcus aureus, S. aureus VA16951; for MBC: read-out: MBC; for MIC: read-out: MIC
Description: as §5, §6, §7, §8

S. aureus (25923) = assay: In vitro antibacterial MIC/MBC test; type: cell-based; details: Staphylococcus aureus, ATCC25923, S. aureus ATCC No. 25923; for MBC: read-out: MBC; for MIC: read-out: MIC
Description: as §5, §6, §7, §8

S. epidermidis (12228) = assay: In vitro antibacterial MIC/MBC test; type: cell-based; details: Staphylococcus epidermidis, ATCC12228, S. epidermidis ATCC No. 12228; for MBC: read-out: MBC; for MIC: read-out: MIC
Description: as §5, §6, §7, §8

S. pyogenes (89) = assay: In vitro antibacterial MIC/MBC test; type: cell-based; details: Streptococcus pyogenes, S. pyogenes SWRI No. 89; for MBC: read-out: MBC; for MIC: read-out: MIC
Description: as §5, §6, §7, §8

S. aureus 4-81 = assay: In vitro antibacterial MIC/MBC test; type: cell-based; details: Staphylococcus aureus, 481, S. aureus 4-81; for MBC: read-out: MBC; for MIC: read-out: MIC
Description: as §5, §6, §7, §8

S. aureus = assay: In vitro MIC/MBC summary (Table II); type: cell-based; details: Staphylococcus aureus; for MIC: read-out: MIC Range
Description: as §5, §6, §7, §8

Streptococcus sp. = assay: In vitro MIC/MBC summary (Table II); type: cell-based; details: 9 Streptococcus sp. strains; for MIC50: read-out: MIC 50%; for MIC90: read-out: MIC 90%
Description: as §5, §6, §7, §8

S. edidermidis = assay: In vitro MIC/MBC summary (Table II); type: cell-based, S. epidermidis; details: Staphylococcus epidermidis, 5 S. edidermidis strains; for MIC50: read-out: MIC 50%; for MIC90: read-out: MIC 90%; for MIC: read-out: MIC Range
Description: as §5, §6, §7, §8

[2] = tested on: Staphylococcus aureus 39881 (Methicillin-resistant); assay: Mouse protection test, S. aureus 39881 (methicillin-resistant) infection; type: in vivo, ICR mice; Staphylococcus aureus; details: for Survivors/Total: two doses; for ED50: Staphylococcus aureus, 168 h, two doses one-half and four hours postinfection, read-out: Protective Dose 50% (95% Confidence Limits)
Description: as §1, §2
The culture was streaked onto three Brain Heart Infusion Agar plates and incubated 16 hours at 37° C. The cells were washed off each plate with five ml of saline and the cell suspension was shaken with glass beads for two minutes on a paint shaker. The suspension was diluted with saline so that a […] gave a 44% T reading on a B+L Spectronic 20 (650 nm) calibrated with saline. The stock suspension was diluted 1:24 (10 ml stock suspension+230 ml 5% mucin) to obtain the test inoculum containing 1.55×10^9 cells/ml.
as §3
Mice were medicated twice: at one-half and four hours postinfection. The drugs were administered by both subcutaneous (0.2 ml) and oral (0.5 ml) routes.
as §4

`CCn1cc(C(=O)O)c(=O)c2ccc(-c3cc(C)nc(C)c3)cc21` [Win 35,439, 1-ethyl-1,4-dihydro-7-(2,6-dimethyl-4-pyridinyl)-4-oxo-3-quinolinecarboxylic acid] was tested, and the Survivors/Total ([1]; 0.39 mg/kg po) was 0/10, the Survivors/Total ([1]; 0.78 mg/kg po) was 1/10 and the Survivors/Total ([1]; 0.78 mg/kg sc) was 1/10. For the same compound, the Survivors/Total ([1]; 1.56 mg/kg po) was 0/10, the Survivors/Total ([1]; 1.56 mg/kg sc) was 0/10 and the Survivors/Total ([1]; 3.13 mg/kg po) was 0/10. For the same compound, the Survivors/Total ([1]; 3.13 mg/kg sc) was 6/10, the Survivors/Total ([1]; 6.25 mg/kg po) was 7/10 and the Survivors/Total ([1]; 6.25 mg/kg sc) was 10/10. For the same compound, the ED50 ([1]; po) was roughly 5.5 mg/kg, the ED50 ([1]; sc) was 2.9 mg/kg and the MBC (S. epidermidis 1-3-H) was 0.25 µg/mL (≈ 0.776 µM). It also gave an MIC (S. epidermidis 1-3-H) of 0.25 µg/mL (≈ 0.776 µM), an MBC (S. epidermidis 1-5-H) of 0.25 µg/mL (≈ 0.776 µM) and an MIC (S. epidermidis 1-5-H) of 0.25 µg/mL (≈ 0.776 µM). It also gave an MBC (S. aureus VA16951) of 0.06 µg/mL (≈ 0.186 µM), an MIC (S. aureus VA16951) of 0.06 µg/mL (≈ 0.186 µM) and an MBC (S. aureus (25923)) of 0.125 µg/mL (≈ 0.388 µM). The MIC (S. aureus (25923)) was 0.125 µg/mL (≈ 0.388 µM), the MBC (S. epidermidis (12228)) was 0.25 µg/mL (≈ 0.776 µM) and the MIC (S. epidermidis (12228)) was 0.25 µg/mL (≈ 0.776 µM). The MBC (S. pyogenes (89)) was greater than 16 µg/mL, the MIC (S. pyogenes (89)) was 4 µg/mL (≈ 12.4 µM) and the MBC (S. aureus 4-81) was 0.125 µg/mL (≈ 0.388 µM). It also gave an MIC (S. aureus 4-81) of 0.06 µg/mL (≈ 0.186 µM), an MBC (S. aureus; read-out: MBC 50%) of 0.25 µg/mL (≈ 0.776 µM) and an MBC (S. aureus; read-out: MBC 90%) of 0.5 µg/mL (≈ 1.55 µM). For the same compound, the MBC (S. aureus; read-out: MBC Range) was 0.125 to 0.5 µg/mL (≈ 0.388 to 1.55 µM), the MIC50 (S. aureus; 15 S. aureus strains, read-out: MIC 50%) was 0.06 µg/mL (≈ 0.186 µM) and the MIC90 (S. aureus; 15 S. aureus strains, read-out: MIC 90%) was 0.125 µg/mL (≈ 0.388 µM). For the same compound, the MIC (S. aureus; 15 S. aureus strains) was 0.03 to 0.125 µg/mL (≈ 0.0931 to 0.388 µM), the MBC (Streptococcus sp.; read-out: MBC 50%) was 2 µg/mL (≈ 6.2 µM) and the MBC (Streptococcus sp.; read-out: MBC 90%) was greater than 16 µg/mL. For the same compound, the MIC50 (Streptococcus sp.) was 2 µg/mL (≈ 6.2 µM), the MIC90 (Streptococcus sp.) was 4 µg/mL (≈ 12.4 µM) and the MIC (Streptococcus sp.; read-out: MIC Range) was 0.5 to 4 µg/mL (≈ 1.55 to 12.4 µM). For the same compound, the MBC (S. edidermidis; read-out: MBC 50%) was 0.25 µg/mL (≈ 0.776 µM), the MBC (S. edidermidis; read-out: MBC 90%) was 0.25 µg/mL (≈ 0.776 µM) and the MBC (S. edidermidis; read-out: MBC Range) was 0.25 to 0.5 µg/mL (≈ 0.776 to 1.55 µM). It also gave an MIC50 (S. edidermidis) of 0.25 µg/mL (≈ 0.776 µM), an MIC90 (S. edidermidis) of 0.25 µg/mL (≈ 0.776 µM) and an MIC (S. edidermidis) of 0.25 to 0.5 µg/mL (≈ 0.776 to 1.55 µM). The Survivors/Total ([2]; 1.56 mg/kg po) was 1/10, the Survivors/Total ([2]; 1.56 mg/kg sc) was 0/10 and the Survivors/Total ([2]; 3.13 mg/kg po) was 0/10. The Survivors/Total ([2]; 3.13 mg/kg sc) was 0/10, the Survivors/Total ([2]; 6.25 mg/kg po) was 3/10 and the Survivors/Total ([2]; 6.25 mg/kg sc) was 9/10. For the same compound, the Survivors/Total ([2]; 12.5 mg/kg po) was 10/10, the Survivors/Total ([2]; 12.5 mg/kg sc) was 7/10 and the ED50 ([2]; po) was 7.2 mg/kg. For the same compound, the ED50 ([2]; sc) was roughly 4.9 mg/kg.

`COc1cccc(OC)c1C(=O)N[C@@H]1C(=O)N2[C@@H]1SC(C)(C)[C@@H]2C(=O)O` [Methicillin, 6-(2,6-dimethoxybenzamido)penicillanic acid sodium salt] showed an MBC (S. epidermidis 1-3-H) of 4 µg/mL, an MIC (S. epidermidis 1-3-H) of 2 µg/mL and an MBC (S. epidermidis 1-5-H) of 2 µg/mL. It also gave an MIC (S. epidermidis 1-5-H) of 1 µg/mL, an MBC (S. aureus VA16951) of 8 µg/mL and an MIC (S. aureus VA16951) of 4 µg/mL. For the same compound, the MBC (S. aureus (25923)) was 2 µg/mL, the MIC (S. aureus (25923)) was 2 µg/mL and the MBC (S. epidermidis (12228)) was 4 µg/mL. The MIC (S. epidermidis (12228)) was 4 µg/mL, the MBC (S. pyogenes (89)) was no more than 0.06 µg/mL and the MIC (S. pyogenes (89)) was no more than 0.06 µg/mL. It also gave an MBC (S. aureus 4-81) of 2 µg/mL, an MIC (S. aureus 4-81) of 2 µg/mL and an MIC50 (S. aureus) of 2 µg/mL. The MIC90 (S. aureus) was 8 µg/mL, the MBC (S. aureus; read-out: MBC 90%) was greater than 64 µg/mL and the MIC (S. aureus) was 1 to 125 µg/mL. The MBC (Streptococcus sp.; read-out: MBC 50%) was 0.125 µg/mL, the MBC (Streptococcus sp.; read-out: MBC 90%) was 64 µg/mL and the MIC50 (Streptococcus sp.) was 0.25 µg/mL. The MIC90 (Streptococcus sp.) was 64 µg/mL, the MBC (S. edidermidis; read-out: MBC 50%) was 4 µg/mL and the MBC (S. edidermidis; read-out: MBC 90%) was 4 µg/mL. It also gave an MBC (S. edidermidis; read-out: MBC Range) of 2 to 4 µg/mL, an MIC50 (S. edidermidis) of 2 µg/mL and an MIC90 (S. edidermidis) of 4 µg/mL. The MIC (S. edidermidis) was 1 to 4 µg/mL, the Survivors/Total ([2]; 25 mg/kg sc) was 0/10 and the Survivors/Total ([2]; 50 mg/kg sc) was 0/10. The Survivors/Total ([2]; 100 mg/kg sc) was 0/10 and the ED50 ([2]; sc) was greater than 100 mg/kg.

— US4698350A, “1-ethyl-6-fluoro-1,4-dihydro- 7-(2,6-dimethyl-4-pyridinyl)-4-oxo-3-quinolinecarboxylic acid and antibacterial use thereof” (Sterling Drug Inc., priority 1984, dated 1987)
